This experiment deals with dopamine reuptake; unilateral nigrostriatal lesioned rats. As to the kind of experiment: Ipsilateral circling behaviour of unilateral nigrostriatal (6-OHDA) lesioned rats. In kind it is in vivo, rat (CD). The conditions noted are these: methamphetamine challenge 2 mg/kg intraperitoneal; selected rats. An excerpt:
The two tracts of the nigrostriatal dopamine system are independent and are located on either side of the midline of the brain. When one tract is destroyed using the specific neurotoxin, 6-hydroxydopamine (6-OHDA), rats will display characteristic circling behaviour after injection of dopaminergic drugs. The direction of rotation, however, is dependent on the stimulus employed. Drugs which inhibit dopamine reuptake can only function on the unlesioned side of the brain and induce circling towards the lesion site (known as ipsilateral circling.)
Male CD rats (250-300 g: Charles River) were anaesthetised with `Equithesin` type anaesthetic (3.2 ml/kg i.p.) and secured in a stereotaxic frame (David Kopf Small Animal Stereotaxic Instrument DKI 900). After shaving the area, a saggital incision of 1.5-2 cm was made and skin flaps dissected from the skull. A small hole was made in the skull, using a No. 6 dental burr, to allow the tip of a 30 s.w.g. stainless steel cannula to be inserted to the left substantia nigra. This was located by using the following co-ordinates, using skull landmark bregma as the zero reference point; rostral-caudal -2.8; medial-lateral +2.0; dorsal-ventral -8.0 from the surface of the dura, all co-ordinates measured in millimetres. This system of co-ordinates is a modification of the de Groot system as described by Pellegrino et al (A stereotaxic atlas of the rat brain, 2nd Edition, Plenum Press 1979). 6-Hydroxydopamine HBr (2 μg/μl, as base: Sigma Chemical Co.) was injected into the left substantia nigra at 1 μl/min; a total of 8 μg was administered over a period of 4 minutes using an infusion pump (Braun `Perfusor` ED2). After removal of the cannula, the skin flaps were joined with a single everted suture and the animal allowed to recover.
After 21 days, the circling behaviour of the rats was examined. They were placed, individually, in circular plastic arenas (30 cm diameter×12 cm high) for 1 hour, with no access to food or water during this period. […] One `turn` consisted of rotation through 360° in either direction. As rats were always lesioned on the left side of the brain, anticlockwise turns were ipsilateral.
Control values were determined for all rats by observing their spontaneous circling behaviour in the arenas without prior dosing. The mean turns per minute was always less than 1.
The rats were challenged with an intraperitoneal dose of methamphetamine (2 mg/kg) and immediately placed in the arenas. In these experiments circling behaviour was monitored during two periods, 0-1 h and 4-5 h after dosing. Rats giving a mean of more than 5 ipsilateral turns per minute during the first hour in response to methamphetamine were used in subsequent tests. Following selection, the rats were used in groups of 5 or more rats to test the drug under investigation.

For `CN[C@@H](C)Cc1ccccc1` [methamphetamine, reference compound], the “mean response of the group, ipsilateral turns per minute” value is recorded as “more than 10 ipsilateral turns per minute”.

The record behind these values is patent publication US4871774A, “Medical treatment” (The Boots Company PLC, priority 1987, dated 1989).
